pIC50: −log10 of the molar value. Read-outs that look alike come from different tables or passages of the source.
Columns and labels:
hpol κ = molecular target: T1, hpol κ (Homo sapiens, UniProt Q9UBT6); assay: Fluorescence-based (TAMRA/BHQ strand displacement) DNA polymerase activity assay
T1 sequence (Q9UBT6 19-526): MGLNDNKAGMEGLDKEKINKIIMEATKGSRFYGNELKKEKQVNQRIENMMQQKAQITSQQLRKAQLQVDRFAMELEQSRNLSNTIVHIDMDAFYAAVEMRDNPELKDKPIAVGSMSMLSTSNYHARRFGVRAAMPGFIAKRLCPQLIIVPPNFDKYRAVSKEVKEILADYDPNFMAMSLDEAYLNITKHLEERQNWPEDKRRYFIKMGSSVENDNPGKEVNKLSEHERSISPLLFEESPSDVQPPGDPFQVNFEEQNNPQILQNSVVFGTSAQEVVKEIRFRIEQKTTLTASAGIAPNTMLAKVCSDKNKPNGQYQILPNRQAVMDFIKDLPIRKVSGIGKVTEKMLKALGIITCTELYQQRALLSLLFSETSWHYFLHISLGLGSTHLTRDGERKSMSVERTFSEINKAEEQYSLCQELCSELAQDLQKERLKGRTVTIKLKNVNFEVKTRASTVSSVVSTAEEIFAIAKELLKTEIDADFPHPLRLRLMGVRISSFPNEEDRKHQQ

[1] = system: hpol κ-deficient HAP-1 cells; assay: supF mutagenesis assay; settings: 1 μM IAG-10, 24 h
Procedure: HAP-1 hpol κ-proficient and hpol κ-deficient cells were cultured in 10 cm dishes to ~80% confluency in Iscove's modified Dulbecco's medium (Invitrogen) containing 10% (v/v) FBS supplemented with Ix antibiotic antimycotic solution (Sigma). They were transfected with unmodified (control) and methylmethanesulfonate (MMS)-modified pSP189 plasmid harboring the supF gene either in the absence or presence of 1 μM IAG-10. For plasmid modification with MMS, the pSP189 plasmid was first incubated with 100 mM MMS in 10 mM HEPES buffer (pH 7.5) containing 50 mM KCl, 5 mM MgCl2, and 1 mM dithiothreitol at RT for 1 h. The MMS-modified plasmid was then purified by ethanol precipitation and used in subsequent transfections, similar to the unmodified plasmid. […] The recovered plasmids (75-100 ng) were then transformed into E. coli MBM7070 strain by electroporation, and the transformed bacterial cells were plated on LB-agar plates containing 100 μg/mL ampicillin, 1 mM isopropyl-I-thio-fi-Dgalactopyranoside (IPTG) and 100 μg/mL X-gaL The resulting blue (nonmutated) and white (mutated) colonies were counted. The mutation frequency was calculated as the ratio of mutant (white) colonies to total (blue+white) colonies. At least 10 000 colonies were counted for each condition, and the results reported represent the mean (±SD) of experiments performed in biological triplicate.

hpol ι = molecular target: T2, hpol ι (Homo sapiens, UniProt Q9UNA4); assay: Gel-based primer extension assay; format: biochemical; settings: 10 μM; 10 nM hpol ι
T2 construct: hpol ι (residues 1-446); made in house
T2 sequence (Q9UNA4 1-446): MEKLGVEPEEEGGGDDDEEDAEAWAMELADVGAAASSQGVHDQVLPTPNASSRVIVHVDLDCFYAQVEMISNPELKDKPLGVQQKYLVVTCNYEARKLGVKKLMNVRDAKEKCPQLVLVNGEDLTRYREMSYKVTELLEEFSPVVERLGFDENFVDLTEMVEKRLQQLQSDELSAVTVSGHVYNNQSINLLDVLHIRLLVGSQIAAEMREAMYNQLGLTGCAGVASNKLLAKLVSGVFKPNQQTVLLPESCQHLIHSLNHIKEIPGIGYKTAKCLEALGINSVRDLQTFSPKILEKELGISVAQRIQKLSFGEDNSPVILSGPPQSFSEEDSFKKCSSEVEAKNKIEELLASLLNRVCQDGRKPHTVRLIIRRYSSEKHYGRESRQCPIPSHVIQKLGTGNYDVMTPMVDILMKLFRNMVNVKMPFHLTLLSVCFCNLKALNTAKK

T98G spheroids (GSC) = assay: GSC clonogenic survival assay; format: cell-based; settings: 50 nM, 3 hours
Procedure: GSC clonogenic survival assay. Spheroids proficient and deficient in hpol κ were cultured for 12 days as described above before treating with PNR 7-48 (50 nM) for 3 hours. Spheroids were harvested, titrated into single cell populations and counted via trypan blue exclusion assay. Around 500 viable cells were plated per well in a 6 well dish and allowed to recover for 8-10 days in MEM with 10% FBS. Cells were fixed with 4% formaldehyde (v/v) for 30 min followed by staining with crystal violet (Sigma Aldrich, St. Louis, MO) for 30 min. Total number of colonies were counted using the EVOS microscope, with viable colonies consisting of 25 cells or more. This experiment was done in technical triplicate. As with spheroid growth, clonogenic survival was impeded for T98G cells lacking hpol κ activity (FIG. 11).

NT2 cells = assay: Clonogenic survival assay; format: cell-based, human; settings: IAG-10 and TMZ in combination
T98G spheroids = assay: Spheroid growth rate assay; format: cell-based; settings: 50 nM or 500 nM, with or without TMZ, 12 days
Procedure: Cell, spheroid and organoid culture. Grade IV glioma cells (T98G) were obtained from the American Type Culture Collection (ATCC). MCF7 cells were a kind gift from Dr. Timothy Chambers (UAMS). The POLKKO T98G cell lines were generated using CRISPR-Cas9 and validated by immunoblotting (data not shown). For normal culture, these cells were grown in minimum essential media (MEM) containing 10% fetal bovine serum (FBS), 1% (v/v) antibiotic/[…] and incubated at 37° C. in 5% CO2.
For spheroid culture, 24 h prior to plating cells, dishes were coated in 1× poly-HEMA (0.6 g poly-2-hydroxyethyl methacrylate into 50 mL 95% EtOH) under sterile conditions and allowed to dry overnight. Coated dishes were hydrated in 1×PBS for 20 min prior to plating. Spheroids were cultured in NeuroCult NS-A basal medium containing NeuroCult NS-A proliferation supplement, 20 ng/mL human recombinant epidermal growth factor (EGF), 10 ng/mL human recombinant basic fibroblast growth factor (bFGF), and 0.0002% heparin (referred to as NS-A complete medium). […]
Spheroid growth rate assay. […] Spheroids with a diameter of 50 µm or larger were counted as true spheroids and an average size was determined for each well. Changes in average size for each well over the growth time was recorded and used to generate the growth rate. […]

Cl.[H]/N=C(\N)NN=Cc1cn(C(=O)c2cccc3ccccc23)c2ccc(Cl)cc12 [IAG-10, (E)-2-((1-(1-naphthoyl)-5-chloro-1H-indol-3-y1)methylene)hydrazine-1-carboximidamide hydrochloride]
polymerase activity relative to DMSO control (hpol κ; 10 μM, 25 nM hpol κ, comparison with A, B, X family pols): only hpol κ activity was inhibited | % Activity Mean (hpol κ activity) (hpol κ; IAG compounds, 40 μM, rate relative to DMSO control, three independent experiments): 0.0% | specificity for hpol κ over η (hpol κ; after altering the reaction conditions (lower enzyme and DNA)): ~ 30 fold | specificity for hpol κ over η (hpol κ; before altering the reaction conditions): ~ 2 fold | pIC50 (hpol κ; read-out: IC50 against hpol κ, structure-activity study, 1 nM hpol κ, 50 nM DNA): 5.14 | pIC50 (hpol κ; read-out: IC50 for inhibition of hpol κ, 0.5 nM DNA, 0.1 nM hpol κ, 95% confidence interval in parentheses): 6.14 | pIC50 (hpol κ; read-out: IC50 for inhibition of hpol κ, 1 nM DNA, 95% confidence interval in parentheses): 5.96 | pIC50 (hpol κ; read-out: IC50 for inhibition of hpol κ, 2.5 nM DNA, 95% confidence interval in parentheses): 5.85 | pIC50 (hpol κ; read-out: IC50 for inhibition of hpol κ, 10 nM DNA, 95% confidence interval in parentheses): 5.05 | pIC50 (hpol κ; read-out: IC50 for inhibition of hpol κ, 25 nM DNA, 95% confidence interval in parentheses): 5.05 | pIC50 (hpol κ; read-out: IC50 for inhibition of hpol κ, 50 nM DNA, 95% confidence interval in parentheses): 5.14 | turnover number (kcat), hpol κ-catalyzed dTTP insertion (hpol κ; steady-state kinetics with varying inhibitor concentration): sharp decrease | mutation frequency for control or MMS-damaged DNA [1]: did not alter the mutation frequency | polymerase activity relative to DMSO control (hpol ι): only hpol κ was inhibited | GSC differentiation (T98G spheroids (GSC)): inhibit GSC differentiation | colony formation ability, combination (NT2 cells): did not exhibit changes in colony formation ability | glioma spheroid growth rate (T98G spheroids): inhibits glioma spheroid growth rate on its own and also enhances the effects of TMZ

From patent US12685733B2, “Indole molecules and use thereof in the inhibition of DNA polymerases” (BioVentures, LLC, priority 2019, dated 2026)
